Assay results taken from patent publication US12351571B2, “Substituted quinoxaline compounds as inhibitors of FGFR tyrosine kinases” (ARRAY BIOPHARMA INC., priority 2018, dated 2025).

Experiments:
[1] = molecular target: phosphorylated FGFR3 (Homo sapiens (Human), UniProt P22607); experiment: FGFR Enzyme Binding Assay (HTRF tracer displacement), FGFR3; details: 5 nM phosphorylated FGFR3, 60 minute incubation at 22° C.; read-out: FGFR3 Enz Binding IC50
Description: The potency of compounds inhibiting human isoforms of FGFR kinase was determined using Life Technologies' Homogeneous Time Resolved Fluorescence (HTRF)-based binding assay technology. An incubation was conducted with either 5 nM dephosphorylated FGFR1 (Array Biopharma, p1702; SEQ ID NO: 1, amino acids 458 to 765, dephosphorylated by co-expression with PTP1b (protein tyrosine phosphatase 1B)), 5 nM dephosphorylated FGFR2 (Life Technologies, Cat. No. PV4106 that had been dephosphorylated with Lambda protein phosphatase (New England Biolabs, cat #P0753)) or 5 nM phosphorylated FGFR3 (Array Biopharma, p1836; SEQ ID NO: 5, amino acids 449 to 759), 50 nM Kinase Tracer 236 (Life Technologies Cat. No. PR9078A), 2 nM Biotin-anti-6HIS (Life Technologies Cat. No. PV6090) and 2 nM Europium-Streptavidin (Life Technologies Cat. No. PV6025) along with test compound in a buffer consisting of 50 mM HEPES ((4-(2-hydroxyethyl)-1-piperazineethanesulfonic acid, pH 7.5), 5 mM MgCl2, 0.005% Triton X-100, 1 mM DTT, 1 mM NaVO4 and 2% DMSO in a final volume of 12 μL Compounds were typically prepared as a 3-fold or 4-fold serial dilution in DMSO and added to the assay to give the appropriate final concentration. After a 60 minute incubation at 22° C., the extent of tracer displacement was determined using a PerkinElmer EnVision multimode plate reader via HTRF dual wavelength detection, and the percent of control (POC) was calculated using a ratiometric emission factor. One hundred POC was determined using no test compound, and 0 POC was determined in the presence of 1 μM of an appropriate control inhibitor. A 4-parameter logistic curve was fit to the POC values as a function of the concentration of compound, and the IC50 value was the point where the best-fit curve crossed 50 POC.

[2] = molecular target: FGFR1 (Homo sapiens (Human), UniProt P11362); experiment: LC/MS FGFR1 kobs assay (covalent modification); format: biochemical; details: 500 nM FGFR1, 3 μM compound
Sequence of FGFR1 (P11362 458-765): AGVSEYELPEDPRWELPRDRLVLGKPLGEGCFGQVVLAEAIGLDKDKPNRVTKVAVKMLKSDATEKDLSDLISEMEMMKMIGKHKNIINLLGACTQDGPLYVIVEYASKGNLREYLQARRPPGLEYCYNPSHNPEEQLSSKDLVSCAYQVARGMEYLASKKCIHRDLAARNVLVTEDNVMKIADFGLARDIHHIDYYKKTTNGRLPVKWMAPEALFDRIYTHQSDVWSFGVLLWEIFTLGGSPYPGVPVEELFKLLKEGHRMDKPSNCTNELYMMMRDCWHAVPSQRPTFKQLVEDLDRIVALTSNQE
Description: The LC/MS FGFR1 and FGFR3 kobs assays were conducted as follows. 500 nM FGFR1 (Array BioPharma construct p1702; SEQ ID NO: 1, amino acids 458-765) or FGFR3 (Array BioPharma construct p1700; SEQ ID NO: 5, amino acids 449-759) were incubated with 3 μM compound in 25 mM HEPES (4-(2-hydroxyethyl)-1-piperazineethanesulfonic acid), pH 7.4, 5 mM MgCl2, 150 mM NaCl, 0.5 mM TCEP (tris(2-carboxyethyl) phosphine), and 2% DMSO in a total volume of 20 μL. At each time point, the reaction was quenched with 20 μL of 0.4% formic acid. The extent of protein modification by each compound was determined by LC/MS on an Agilent Technologies 6520 Q-TOF LC/MS. Protein signals were then automatically deconvoluted using Agilent Masshunter software. Deconvoluted mass signals were exported to Tibco Spotfire data analysis program for further processing and normalization.
Data analysis included five steps. First, the signals for the “DMSO Controls” were analyzed to determine the percent of signal associated with unmodified FGFR1 or FGFR3 at each time point. Next, the percent of the signal associated with the covalent modification was determined. Third, the average nonmodified “DMSO Control” signal was used to normalize the modified protein signals at each time point. The percent of unmodified protein was fit to an exponential decay model where A0 is the Percent Unmodified at the start of the reaction, and kobs is the observed rate constant over the time period.

[3] = molecular target: FGFR3 (Homo sapiens (Human), UniProt P22607); experiment: FGFR Enzyme Activity Assay (LanthaScreen TR-FRET), FGFR3; format: biochemical; details: 25 μM ATP, 10 minute incubation; read-out: FGFR3 Enz FRET IC50
Sequence of FGFR3 (P22607 397-806): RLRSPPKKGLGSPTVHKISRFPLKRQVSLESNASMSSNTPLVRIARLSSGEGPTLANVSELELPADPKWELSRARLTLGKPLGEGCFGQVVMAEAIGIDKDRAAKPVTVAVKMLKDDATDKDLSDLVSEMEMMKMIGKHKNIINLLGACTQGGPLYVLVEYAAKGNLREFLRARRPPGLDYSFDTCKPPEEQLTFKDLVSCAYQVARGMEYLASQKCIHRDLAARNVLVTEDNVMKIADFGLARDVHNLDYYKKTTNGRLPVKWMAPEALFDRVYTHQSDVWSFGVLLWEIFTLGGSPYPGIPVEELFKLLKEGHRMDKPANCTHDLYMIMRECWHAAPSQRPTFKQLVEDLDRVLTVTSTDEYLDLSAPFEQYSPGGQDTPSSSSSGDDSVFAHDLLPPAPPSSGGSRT
Description: FGFR3 kinase activity was measured by the Invitrogen LanthaScreen™ Assay technology which directly measures the amount of substrate phosphorylation by TR-FRET using a flourescently-labeled peptide and Europium-labeled antibody. Briefly, 750 pM N-terminal GST-HIS6 fusion protein with a 3C cleavage site recombinant human FGFR3 (amino acids R397-T806) (ProQinase Cat. No. 1068-0000-1) was incubated with 100 nM Alexa Fluor® 647-Poly-GT Peptide Substrate (Life Technologies Cat. No. PV5836) and 25 μM ATP along with test compound in a buffer consisting of 250 mM HEPES, 25 mM MgCl2, 0.05% TritonX-100, pH 7.5, and 2% DMSO. Compounds were typically prepared in a threefold serial dilution in DMSO and added to the assay to give the appropriate final concentration. After a 10 minute incubation at 22° C., an equal volume of 2 nM LanthaScreen® Eu-PY20 Antibody (Life Technologies Cat. No. PV5691) and 10 mM EDTA were added to quench the kinase reaction and start the detection reaction. After an additional 60 minute incubation at 22° C., the reaction was measured using a PerkinElmer EnVision multimode plate reader via TR-FRET dual wavelength detection, and the percent of control (POC) calculated using a ratiometric emission factor. 100 POC was determined using no test compounds and 0 POC was determined using no enzyme. The POC values were fit to a 4-parameter logistic curve as a function of the concentration of the compound, and the IC50 value is the point where the curve crosses 50 POC.

[4] = molecular target: recombinant human FGFR1 catalytic domain (Homo sapiens (Human), UniProt P11362); experiment: FGFR Enzyme Activity Assay (LanthaScreen TR-FRET), FGFR1; format: biochemical; details: 15 μM ATP, 20 minutes incubation; read-out: FGFR1 Enz FRET IC50
Sequence of recombinant human FGFR1 catalytic domain (P11362 other isoform, or with tags, fused parts or gaps): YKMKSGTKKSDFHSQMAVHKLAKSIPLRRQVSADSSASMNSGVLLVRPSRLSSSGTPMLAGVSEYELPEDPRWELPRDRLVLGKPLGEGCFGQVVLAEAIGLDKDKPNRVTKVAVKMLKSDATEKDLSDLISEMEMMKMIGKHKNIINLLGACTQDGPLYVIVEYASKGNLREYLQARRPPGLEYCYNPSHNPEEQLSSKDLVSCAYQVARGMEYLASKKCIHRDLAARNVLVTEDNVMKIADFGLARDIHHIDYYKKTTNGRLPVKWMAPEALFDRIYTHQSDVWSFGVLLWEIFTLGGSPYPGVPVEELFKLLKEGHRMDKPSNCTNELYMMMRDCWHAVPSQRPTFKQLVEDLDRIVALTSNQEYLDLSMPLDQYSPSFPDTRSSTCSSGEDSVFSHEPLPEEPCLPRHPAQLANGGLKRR
Description: FGFR1 kinase activity was measured by the Invitrogen LanthaScreen™ Assay technology which directly measures the amount of substrate phosphorylation by Time-resolved fluorescence energy transfer (TR-FRET) using a flourescently-labeled peptide and Europium-labeled antibody. Briefly, 200 pM His-tagged recombinant human FGFR1 catalytic domain (amino acids 308-731) (Life Technologies Cat. No. PR4660A) was incubated with 100 nM Alexa Fluor® 647-Poly-GT Peptide Substrate (Life Technologies Cat. No. PV5836) and 15 μM ATP along with test compound in a buffer consisting of 250 mM HEPES, 25 mM MgCl2, 0.05% TritonX-100, pH 7.5, and 2% DMSO. Compounds were typically prepared in a threefold serial dilution in DMSO and added to the assay to give the appropriate final concentration. After a 20 minutes incubation at 22° C., an equal volume of 2 nM LanthaScreen® Eu-PY20 Antibody (Life Technologies Cat. No. PV5691) and 10 mM EDTA was added to quench the kinase reaction and start the detection reaction. After an additional 60 minute incubation at 22° C., the reaction was measured using a PerkinElmer EnVision multimode plate reader via TR-FRET dual wavelength detection, and the percent of control (POC) calculated using a ratiometric emission factor. 100 POC was determined using no test compounds and 0 POC was determined using no enzyme. The POC values were fit to a 4-parameter logistic curve as a function of the concentration of the compound, and the IC50 value is the point where the curve crosses 50 POC.

Sequence of phosphorylated FGFR3 (P22607 449-759): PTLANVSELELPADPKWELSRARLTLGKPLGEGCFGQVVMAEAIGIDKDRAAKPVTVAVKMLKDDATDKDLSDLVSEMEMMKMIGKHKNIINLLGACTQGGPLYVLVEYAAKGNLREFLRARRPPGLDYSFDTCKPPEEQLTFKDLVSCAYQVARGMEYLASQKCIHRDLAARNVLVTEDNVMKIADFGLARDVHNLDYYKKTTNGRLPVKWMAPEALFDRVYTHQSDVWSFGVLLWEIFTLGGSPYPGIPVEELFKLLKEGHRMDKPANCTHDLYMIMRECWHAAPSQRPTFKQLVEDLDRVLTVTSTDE

Compound: COc1cc(Nc2ccc3ncc(-c4c(C)nn(C5CCN(C(=O)C6(F)CN(C(=O)/C=C/CN(C)C)C6)CC5)c4C)nc3c2)cc(OC)c1 [Example 23, (E)-1-(3-(4-(4-(7-((3,5-dimethoxyphenyl)amino)-quinoxalin-2-yl)-3,5-dimethyl-1H-pyrazol-1-yl)piperidine-1-carbonyl)-3-fluoroazetidin-1-yl)-4-(dimethylamino)but-2-en-1-one]
- IC50 [1]: 13 nM
- FGFR1 Enz kobs [2]: 0.00386 min⁻¹
- IC50 [3]: 972 nM
- IC50 [4]: 5000 nM

Compound: C=CC(=O)N1CC(OC)(C(=O)N2CCC(n3cc(-c4cnc5ccc(Nc6cc(OC)cc(OC)c6)cc5n4)cn3)CC2)C1 [Example 24, 1-(3-(4-(4-(7-((3,5-dimethoxyphenyl)amino)-quinoxalin-2-yl)-1H-pyrazol-1-yl)piperidine-1-carbonyl)-3-methoxy-azetidin-1-yl)prop-2-en-1-one]
- IC50 [1]: 9 nM
- FGFR1 Enz kobs [2]: 0.00223 min⁻¹
- IC50 [3]: 24 nM
- IC50 [4]: 229 nM

Compound: C=CC(=O)N1CC(C(=O)N2CCN(c3cccc(-c4cnc5ccc(Nc6cc(OC)cc(OC)c6)cc5n4)c3)CC2)C1 [Example 25, 1-(3-(4-(3-(7-((3,5-dimethoxyphenyl)amino)-quinoxalin-2-yl)phenyl)-piperazine-1-carbonyl)-azetidin-1-yl)prop-2-en-1-one]
- IC50 [1]: 327 nM
- FGFR1 Enz kobs [2]: 0.00404 min⁻¹
- IC50 [3]: 479 nM
- IC50 [4]: 1760 nM

Compound: C=CC(=O)N1CC(O)(C(=O)N2CCC(n3cc(-c4cnc5ccc(Nc6cc(OC)cc(OC)c6)cc5n4)cn3)CC2)C1 [Example 26, 1-(3-(4-(4-(7-((3,5-dimethoxyphenyl)amino)quinoxalin-2-yl)-1H-pyrazol-1-yl)piperidine-1-carbonyl)-3-hydroxyazetidin-1-yl)prop-2-en-1-one]
- IC50 [1]: 6 nM
- FGFR1 Enz kobs [2]: 0.00288 min⁻¹
- IC50 [3]: 14 nM
- IC50 [4]: 118 nM

Compound: C=CC(=O)N1CC(O)(C(=O)N2CCC(n3cc(-c4cnc5ccc(N(C)c6cc(OC)cc(OC)c6)cc5n4)cn3)CC2)C1 [Example 27, 1-(3-(4-(4-(7-((3,5-dimethoxyphenyl)(methyl)amino)quinoxalin-2-yl)-1H-pyrazol-1-yl)piperidine-1-carbonyl)-3-hydroxyazetidin-1-yl)prop-2-en-1-one]
- IC50 [1]: 6 nM
- FGFR1 Enz kobs [2]: 0.00264 min⁻¹
- IC50 [3]: 2 nM
- IC50 [4]: 10 nM

Compound: C#CCN(c1cc(OC)cc(OC)c1)c1ccc2ncc(-c3cnn(C4CCN(C(=O)C5(F)CN(C(=O)/C=C/CN(C)C)C5)CC4)c3)nc2c1 [Example 28, (E)-1-(3-(4-(4-(7-((3,5-dimethoxyphenyl)(prop-2-yn-1-yl)amino)quinoxalin-2-yl)-1H-pyrazol-1-yl)piperidine-1-carbonyl)-3-fluoroazetidin-1-yl)-4-(dimethylamino)but-2-en-1-one]
- IC50 [1]: 2 nM
- FGFR1 Enz kobs [2]: 0.01569 min⁻¹
- IC50 [3]: 6 nM
- IC50 [4]: 21 nM

Compound: C=CC(=O)N1CC(CN2CCC(n3cc(-c4cnc5ccc(Nc6cc(OC)cc(OC)c6)cc5n4)cn3)CC2)(OC)C1 [Example 29, 1-(3-((4-(4-(7-((3,5-dimethoxyphenyl)amino)quinoxalin-2-yl)-1H-pyrazol-1-yl)piperidin-1-yl)methyl)-3-methoxyazetidin-1-yl)prop-2-en-1-one]
- IC50 [1]: 3 nM
- FGFR1 Enz kobs [2]: 0.0025 min⁻¹
- IC50 [3]: 40 nM
- IC50 [4]: 414 nM

Compound: C=CC(=O)N1CC(CN2CCC(n3cc(-c4cnc5ccc(Nc6cc(OC)cc(OC)c6)cc5n4)cn3)CC2)C1 [Example 30, 1-(3-((4-(4-(7-((3,5-dimethoxyphenyl)amino)quinoxalin-2-yl)-1H-pyrazol-1-yl)piperidin-1-yl)methyl)azetidin-1-yl)prop-2-en-1-one]
- IC50 [1]: 3 nM
- FGFR1 Enz kobs [2]: 0.00172 min⁻¹
- IC50 [3]: 26 nM
- IC50 [4]: 147 nM
